# In patent US6800481B1, “Stable macroscopic membranes formed by self-assembly of amphiphilic peptides and uses therefor” (priority 1992, dated 2004):
# Several values for one entry are separate records, joined by “and”; a condition that tells them apart may be missing. Identical values can stand only once. Like-named read-outs stand apart in the source and are kept apart here. Residues, ends and D or L forms follow the SMILES beside them.
# Key:
# [1] = assay type: physicochemical
# Experimental: Once formed, the macroscopic membranes are stable in a variety of aqueous solutions, including water, phosphate-buffered saline (PBS), tissue culture medium, serum, and also in ethanol, and can be transferred to and stored in any of these liquids. […] The membranes can be transferred from one solution to another using a solid support such as a spatula. They can be broken by cutting, tearing or shearing.
# The stability of the membranes was also tested under a range of temperature, pH and chemical conditions. For these experiments, membranes were formed by adding 20 μl of a 0.5 mM stock solution of EAK16 to 0.5 ml of PBS, and transferred into water or other solutions at test conditions.
# The membranes could be frozen and thawed, although care was required in handling the frozen membranes which were brittle. In boiling water, the membranes tended to be sheared by the mechanical agitation. […] (FIGS. 9A and 9B). […] Such strong thermal stability of the defined β-sheet structure of EAK16 is unusual for a small peptide. For example, these findings contrast with the α-helix-forming sixteen residue (Ala, Glu, Lys)-containing peptides studied previously (Marqusee and Baldwin, 1987).
# The EAK16 membranes were also tested in water at pH 1.5, 3, 7 and 11 at room temperature for at least a week and at 95° C. for about 4 hours. The membranes were unaffected at these pH. […] It is possible that the complementary interactions between the Glu and Lys side-chains are strong even when the carboxyl groups of the Glu residues have been protonated at pH 1.5 and 3, due to their ability to form hydrogen bonds even when protonated.
# The EAK16 membranes were further tested for resistance to chemical denaturation under the following conditions: 1% and 10% sodium dodecyl sulfate (SDS); 1, 2, 3, 4, 5, 6 and 7 M guanidine-HCl; and 1, 2, 3, 4, 5, 6, 7 and 8 M urea. […] The membranes were also tested at 95° C. for 4 hours in 10% SDS; 7 M guanidine-HCl; and at 8 M urea.
# [2] = assay type: physicochemical; conditions: for [θ2] λ2 195 nm / −[θ1] λ1 218 nm: 8 μM in water
# Experimental: Circular dichroism (CD) spectra were taken on an Aviv Model 60DS spectropolarimeter using program 60HDS for data processing. Because EAK16 contains both positively and negatively charged residues, the peptide itself can serve as a buffer. CD samples were prepared and measured at 25° C., unless otherwise indicated. All reagents were ultrapure and solutions were filtered through a […] before use. Circular dichroism (CD) spectroscopy was used to monitor the stability of the β-sheet structure of EAK16 under various conditions. Dilute […] concentrations. […] A 3 mM stock EAK16 solution was mixed in water to a concentration of 20 μM, allowed to equilibrate, and the CD spectrum measured. The solution was then diluted five times by two-fold serial dilutions to final concentrations of […], 10, 5.0, 2.5, 1.25 and 0.625 μM, allowed to equilibrate and CD spectra taken. […] Temperature. The CD spectra of 8 μM EAK16 at 25, 37, 55, 70 and 90° C. in water were measured. […] EAK16 has a calculated pI Of 6.71. It was assumed that changes of pH would have a great effect on the β-sheet structure, especially when the charged groups are neutralized. […] The 3 mM stock solution of EAK16 was mixed with pH buffers at pH 1.5, 3, 7, and 11 to a final concentration of 10 μM and allowed to equilibrate for 4 hours before taking CD measurements. […] Chemical denaturants. […] The peptide (3 mM stock) was mixed with water or different concentrations of guanidine-HCl or urea and allowed to incubate overnight before taking CD measurements. SDS was added to a peptide solution to a final concentration of 0.1% and incubated for 30 minutes.
# PC12 = assay: Cell attachment to biopolymer sheets, normal or Ca++ and Mg++ free medium (Table 6); assay type: cell-based, rat; set-up: key: ++++: strong attachment; +++: moderate attachment; ++: weak attachment; +/−: little or no attachment
# Experimental: (§1) Cells were pretreated in serum-free medium containing 30 μg/ml cyclohexamide for 2 hours before introduction to the peptide membranes. The cells used for the calcium and magnesium-free condition were pre-equilibrated in Ca^++ and Mg^++ free medium containing 5 mM EDTA for 15 minutes before introduction to the peptide membranes. Cells were allowed to attach to the peptide membranes for 30 minutes, 1 and 8 hours at 37° C. The attached cells were shaken for […] on a rotary rocker at 60 r.p.m., then scored under phase contrast microscopy.
# PC12NGF = assay: as above; assay type: cell-based, rat; set-up: key: ++++: strong attachment; +++: moderate attachment; ++: weak attachment; +/−: little or no attachment
# Experimental: as §1
# [3] = tested on: NGF differentiated PC12 cells, retonic acid-differentiated human neuroblastoma and mouse cerebellum granule cells; assay: Neurite outgrowth on biopolymers, several neuronal cell types; assay type: cell-based
# Excerpt: The invention further relates to the regeneration of nerves with filaments of the membranes of the present invention. Nerve regeneration can be promoted and directed by transplanting filaments of RAD16 along the correct path to their targets. This would be extremely useful for patients with severed peripheral nerves. Such a technology could be refined to help people with spinal cord injuries.
# physchem = assay type: physicochemical
# Experimental: EAK16 peptide stock solutions were prepared at a concentration of approximately 0.57 mM (1 mg/ml) in water. The molecular weight of EAK16 is 1,760. […] The concentration was determined by the ninhydrin methods using internal controls.
structure (smiles),measurement,setting,value
CC(=O)N[C@@H](C)C(=O)N[C@@H](CCC(=O)O)C(=O)N[C@@H](C)C(=O)N[C@@H](CCC(=O)O)C(=O)N[C@@H](C)C(=O)N[C@@H](CCCCN)C(=O)N[C@@H](C)C(=O)N[C@@H](CCCCN)C(=O)N[C@@H](C)C(=O)N[C@@H](CCC(=O)O)C(=O)N[C@@H](C)C(=O)N[C@@H](CCC(=O)O)C(=O)N[C@@H](C)C(=O)N[C@@H](CCCCN)C(=O)N[C@@H](C)C(=O)N[C@@H](CCCCN)C(N)=O [EAK16] (Ac-AEAEAKAKAEAEAKAK-NH2),stability of membranes and filaments in liquids,[1],"stable in aqueous solution, in serum, and in ethanol"
same,stability of membranes in water or PBS,[1],stable in water or PBS for at least a week
same,stability of membranes in water over temperature,[1],"stable in water over a wide range of temperatures: up to 95° and at 4°, −20°, and −80 °C"
same,resistance of membranes to chemical denaturation at room temperature,"[1]; 1% and 10% SDS, 1-7 M guanidine-HCl, 1-8 M urea, room temperature at least 4 days",remained stable
same,membranes in 8 M urea at 95° C.,"[1]; 95° C. for 4 hours, 8 M urea",dissolved
same,membranes in SDS and 7 M guanidine-HCl at 95° C.,"[1]; 95° C. for 4 hours, 10% SDS, 7 M guanidine-HCl",remained intact
same,pH at which membranes and filaments are stable,[1]; alkaline and acidic pH,1.5-11
same,β-sheet structure on dilution of the peptide,[2]; 0.625 to 20 μM in water,not significantly affected by dilution of the peptide
same,CD spectra over temperature,"[2]; 25, 37, 55, 70 and 90° C.",unaffected over the range of 25-90 °C
same,Ratio [θ2]/[θ1],[2]; 25 ° C.,3.9
same,[θ2] λ2 195 nm,[2]; 25 ° C.,"62 X1,000"
same,−[θ1] λ1 218 nm,[2]; 25 ° C.,"16 X1,000"
same,Ratio [θ2]/[θ1],[2]; 37 ° C.,4.0
same,[θ2] λ2 195 nm,[2]; 37 ° C.,"60 X1,000"
same,−[θ1] λ1 218 nm,[2]; 37 ° C.,"15 X1,000"
same,Ratio [θ2]/[θ1],[2]; 55 ° C.,3.9
same,[θ2] λ2 195 nm,[2]; 55 ° C.,"55 X1,000"
same,−[θ1] λ1 218 nm,[2]; 55 ° C.,"14 X1,000"
same,Ratio [θ2]/[θ1],[2]; 70 ° C.,4.1
same,[θ2] λ2 195 nm,[2]; 70 ° C.,"54 X1,000"
same,−[θ1] λ1 218 nm,[2]; 70 ° C.,"13 X1,000"
same,Ratio [θ2]/[θ1],[2]; 90 ° C.,4.0
same,[θ2] λ2 195 nm,[2]; 90 ° C.,"50 X1,000"
same,−[θ1] λ1 218 nm,[2]; 90 ° C.,"12.5 X1,000"
same,β-sheet structure in chemical denaturants (CD spectra),"[2]; SDS at 90° C., 1-7 M guanidine-HCl or 8 M urea at room temperature for over 16 hours",not significantly affected
same,"decrease of mean residue ellipticity (−[θ]218 nm), thermal profile",[2]; over 25-90° C.,22%
same,ratios of ellipticity at 194 nm/217 nm,[2]; over the temperature range of 25-90° C.,approximately 4.0
same,"decrease of ellipticity (−[θ]218 nm), pH profile","[2]; pH 1.5 to 3, 7 and 11",less than 10%
same,cell attachment,"PC12; PC12, 30 min, Ca^++ & Mg^++ free, EDTA serum-free + Cyclohex",++++
same,cell attachment,"PC12; PC12, 30 min, Normal Ca^++ & Mg^++ serum-free + Cyclohex",++++
same,cell attachment,"PC12; PC12, 60 min, Ca^++ & Mg^++ free, EDTA serum-free + Cyclohex",++++
same,cell attachment,"PC12; PC12, 60 min, Normal Ca^++ & Mg^++ serum-free + Cyclohex",++++
same,cell attachment,"PC12NGF; 30 min, Ca^++ & Mg^++ free, EDTA serum-free + Cyclohex",++++
same,cell attachment,"PC12NGF; 30 min, Normal Ca^++ & Mg^++ serum-free + Cyclohex",++++
same,cell attachment,"PC12NGF; 60 min, Ca^++ & Mg^++ free, EDTA serum-free + Cyclohex",++++
same,cell attachment,"PC12NGF; 60 min, Normal Ca^++ & Mg^++ serum-free + Cyclohex",++++
same,neurite outgrowth on biopolymers,[3],not on EAK16-based biopolymers
same,solubility,physchem; maximal solubility in water,3000 µM and ~5000 µg/mL
same,solubility,physchem; solubility in 23% actonitrile,≤ 6000 µM and ~10000 µg/mL
